From patent publication US9951077B2, “Aminopyridazinone compounds as protein kinase inhibitors” (ETERNITY BIOSCIENCE INC., priority 2014, dated 2018)

target: Btk (Homo sapiens (Human), UniProt Q06187); assay: Btk kinase assay (ADP-Glo); format: biochemical; details: ATP 1.2 μM, 60 minutes, room temperature; read-out: BTK enzyme IC50
Experimental: The Btk kinase assay was performed using a ADP-Glo Btk kinase assay kit purchased from Promega (Madison, Wis.). The assay was conducted according to the protocols provided in the assay kit. In brief, the enzyme reaction was carried out in the kinase reaction buffer containing Btk (2 ng/μl), ATP (1.2 μM), poly GT peptide (0.3 μM), DTT (40 nM), MnCl2 (1.4 mM), and 1×kinase buffer (included in the kit) in the presence or absence of the tested articles at various concentrations in 384-well plate at room temperature (22±1° C.) for 60 minutes. The final reaction volume for each reaction was 10 μl. Then, 4 μl of ADP-Glo reagent (included in the kit) was added into the reaction and the plate was further incubated for another 40 minutes to terminate the reaction and deplete the remaining ATP. Finally, 10 μl of the kinase detection reagent was added into each reaction to simultaneously convert ADP to ATP and allow the newly synthesized ATP to be measured by a plate-reading luminometer (Victor X5 2030 multilabel reader, PerkinElmer). IC50 value was calculated using appropriate programs in GraphPad Prism by plotting the logarithm of the concentration versus percent inhibition as compared with a vehicle (DMSO) control.

Btk, sequence (Q06187 whole entry): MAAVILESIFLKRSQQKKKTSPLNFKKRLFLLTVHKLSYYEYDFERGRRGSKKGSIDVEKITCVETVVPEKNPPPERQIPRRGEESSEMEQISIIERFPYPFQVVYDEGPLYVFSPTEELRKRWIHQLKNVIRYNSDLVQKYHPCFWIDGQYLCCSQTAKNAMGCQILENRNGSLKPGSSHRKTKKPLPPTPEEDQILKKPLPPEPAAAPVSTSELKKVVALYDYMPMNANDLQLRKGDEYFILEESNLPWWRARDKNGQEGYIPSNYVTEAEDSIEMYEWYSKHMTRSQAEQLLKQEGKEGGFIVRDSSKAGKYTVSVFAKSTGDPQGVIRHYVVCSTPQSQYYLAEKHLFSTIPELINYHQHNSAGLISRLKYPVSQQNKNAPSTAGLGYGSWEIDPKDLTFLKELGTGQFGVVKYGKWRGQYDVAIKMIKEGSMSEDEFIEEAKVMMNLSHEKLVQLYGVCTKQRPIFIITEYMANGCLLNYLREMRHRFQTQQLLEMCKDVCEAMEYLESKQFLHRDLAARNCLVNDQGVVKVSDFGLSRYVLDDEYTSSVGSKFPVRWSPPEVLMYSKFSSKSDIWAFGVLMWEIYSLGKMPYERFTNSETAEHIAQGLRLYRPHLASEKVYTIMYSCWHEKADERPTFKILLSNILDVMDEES

Row | IC50 [nM] | SMILES
1 | 10 to 1000 | N#C/C(=C\C1CC1)C(=O)N1CCC[C@@H](n2cc(-c3ccc(Oc4ccccc4)cc3)c3c(N)n[nH]c(=O)c32)C1 [Example 50, (E)-2-[(3R)-3-[4-amino-7-oxo-3-(4-phenoxyphenyl)-6H-pyrrolo[2,3-d]pyridazin-1-yl]piperidine-1-carbonyl]-3-cyclopropyl-prop-2-enenitrile]
2 | ≤ 10 | C=CC(=O)N1CCCC(n2cc(-c3ccc(OC)cc3)c3c(N)n[nH]c(=O)c32)C1 (stereo not shown) [Example 51, 1-(1-acryloylpiperidin-3-yl)-4-amino-3-(4-methoxyphenyl)-1H-pyrrolo[2,3-d]pyridazin-7(6H)-one]
3 | ≤ 10 | COc1ccc(-c2cn(C3CCCN(C(=O)/C=C/CN(C)C)C3)c3c(=O)[nH]nc(N)c23)cc1 (stereo not shown) [Example 52, 4-amino-1-[1-[(E)-4-(dimethylamino)but-2-enoyl]-3-piperidyl]-3-(4-methoxyphenyl)-6H-pyrrolo[2,3-d]pyridazin-7-one]
4 | ≤ 10 | C=CC(=O)N1CCCC(n2cc(-c3ccc(OC)c(Cl)c3)c3c(N)n[nH]c(=O)c32)C1 (stereo not shown) [Example 53, 1-(1-acryloylpiperidin-3-yl)-4-amino-3-(3-chloro-4-methoxyphenyl)-1H-pyrrolo[2,3-d]pyridazin-7(6H)-one]
5 | ≤ 10 | COc1ccc(-c2cn(C3CCCN(C(=O)/C=C/CN(C)C)C3)c3c(=O)[nH]nc(N)c23)cc1Cl (stereo not shown) [Example 54, 4-amino-3-(3-chloro-4-methoxy-phenyl)-1-[1-[(E)-4-(dimethylamino)but-2-enoyl]-3-piperidyl]-6H-pyrrolo[2,3-d]pyridazin-7-one]
6 | ≤ 10 | C=CC(=O)N1CCCC(n2cc(-c3ccc(Oc4ccccc4F)cc3)c3c(N)n[nH]c(=O)c32)C1 (stereo not shown) [Example 55, 1-(1-acryloylpiperidin-3-yl)-4-amino-3-(4-(2-fluorophenoxy)phenyl)-1H-pyrrolo[2,3-d]pyridazin-7(6H)-one]
7 | ≤ 10 | C=CC(=O)N1CCC[C@@H](n2cc(-c3ccc(Oc4ccccc4F)cc3)c3c(N)n[nH]c(=O)c32)C1 [Example 56, (R)-1-(1-acryloylpiperidin-3-yl)-4-amino-3-(4-(2-fluorophenoxy)phenyl)-1H-pyrrolo[2,3-d]pyridazin-7(6H)-one]
8 | ≤ 10 | CN(C)C/C=C/C(=O)N1CCC[C@@H](n2cc(-c3ccc(Oc4ccccc4F)cc3)c3c(N)n[nH]c(=O)c32)C1 [Example 57, 4-amino-1-[(3R)-1-[(E)-4-(dimethylamino)but-2-enoyl]-3-piperidyl]-3-[4-(2-fluorophenoxy)phenyl]-6H-pyrrolo[2,3-d]pyridazin-7-one]
9 | 10 to 1000 | CN(C)C/C=C/C(=O)N1CCC[C@@H](n2cc(-c3ccc(Oc4c(F)cccc4F)cc3)c3c(N)n[nH]c(=O)c32)C1 [Example 59, 4-amino-3-[4-(2,6-difluorophenoxy)phenyl]-1-[(3R)-1-[(E)-4-(dimethylamino)but-2-enoyl]-3-piperidyl]-6H-pyrrolo[2,3-d]pyridazin-7-one]
10 | 10 to 1000 | C=CC(=O)N1CCCC(n2cc(-c3ccc(Oc4ccc(F)cc4)cc3)c3c(N)n[nH]c(=O)c32)C1 (stereo not shown) [Example 60, 1-(1-acryloylpiperidin-3-yl)-4-amino-3-(4-(4-fluorophenoxy)phenyl)-1H-pyrrolo[2,3-d]pyridazin-7(6H)-one]
11 | 10 to 1000 | CN(C)C/C=C/C(=O)N1CCCC(n2cc(-c3ccc(Oc4ccc(F)cc4)cc3)c3c(N)n[nH]c(=O)c32)C1 (stereo not shown) [Example 61, 4-amino-1-[1-[(E)-4-(dimethylamino)but-2-enoyl]-3-piperidyl]-3-[4-(4-fluorophenoxy)phenyl]-6H-pyrrolo[2,3-d]pyridazin-7-one]
12 | 10 to 1000 | C=CC(=O)N1CCCC(n2cc(-c3ccc(Oc4cccc(F)c4)cc3)c3c(N)n[nH]c(=O)c32)C1 (stereo not shown) [Example 62, 1-(1-acryloylpiperidin-3-yl)-4-amino-3-(4-(3-fluorophenoxy)phenyl)-1H-pyrrolo[2,3-d]pyridazin-7(6H)-one]
13 | ≤ 10 | CN(C)C/C=C/C(=O)N1CCCC(n2cc(-c3ccc(Oc4cccc(F)c4)cc3)c3c(N)n[nH]c(=O)c32)C1 (stereo not shown) [Example 63, 4-amino-1-[1-[(E)-4-(dimethylamino)but-2-enoyl]-3-piperidyl]-3-[4-(3-fluorophenoxy)phenyl]-6H-pyrrolo[2,3-d]pyridazin-7-one]
14 | 10 to 1000 | C=CC(=O)N1CCCC(n2cc(-c3ccc(Oc4ccc(Cl)cc4)cc3)c3c(N)n[nH]c(=O)c32)C1 (stereo not shown) [Example 64, 1-(1-acryloylpiperidin-3-yl)-4-amino-3-(4-(4-chlorophenoxy)phenyl)-1H-pyrrolo[2,3-d]pyridazin-7(6H)-one]
15 | 10 to 1000 | CN(C)C/C=C/C(=O)N1CCCC(n2cc(-c3ccc(Oc4ccc(Cl)cc4)cc3)c3c(N)n[nH]c(=O)c32)C1 (stereo not shown) [Example 65, 4-amino-3-[4-(4-chlorophenoxy)phenyl]-1-[1-[(E)-4-(dimethylamino)but-2-enoyl]-3-piperidyl]-6H-pyrrolo[2,3-d]pyridazin-7-one]
16 | 10 to 1000 | C=CC(=O)N1CCCC(n2cc(-c3ccc(Oc4cccc(Cl)c4)cc3)c3c(N)n[nH]c(=O)c32)C1 (stereo not shown) [Example 66, 1-(1-acryloylpiperidin-3-yl)-4-amino-3-(4-(3-chlorophenoxy)phenyl)-1H-pyrrolo[2,3-d]pyridazin-7(6H)-one]
17 | ≤ 10 | CN(C)C/C=C/C(=O)N1CCCC(n2cc(-c3ccc(Oc4cccc(Cl)c4)cc3)c3c(N)n[nH]c(=O)c32)C1 (stereo not shown) [Example 67, 4-amino-3-[4-(3-chlorophenoxy)phenyl]-1-[1-[(E)-4-(dimethylamino)but-2-enoyl]-3-piperidyl]-6H-pyrrolo[2,3-d]pyridazin-7-one]
18 | 10 to 1000 | C=CC(=O)N1CCCC(n2cc(-c3ccc(Oc4cccc(Cl)c4)c(OC)c3)c3c(N)n[nH]c(=O)c32)C1 (stereo not shown) [Example 68, 1-(1-acryloylpiperidin-3-yl)-4-amino-3-(4-(3-chlorophenoxy)-3-methoxyphenyl)-1H-pyrrolo[2,3-d]pyridazin-7(6H)-one]
19 | ≤ 10 | COc1cc(-c2cn(C3CCCN(C(=O)/C=C/CN(C)C)C3)c3c(=O)[nH]nc(N)c23)ccc1Oc1cccc(Cl)c1 (stereo not shown) [Example 69, 4-amino-3-[4-(3-chlorophenoxy)-3-methoxy-phenyl]-1-[1-[(E)-4-(dimethylamino)but-2-enoyl]-3-piperidyl]-6H-pyrrolo[2,3-d]pyridazin-7-one]
20 | 10 to 1000 | C=CC(=O)N1CCC[C@@H](n2cc(-c3ccc(Oc4ccccc4Cl)cc3)c3c(N)n[nH]c(=O)c32)C1 [Example 70, (R)-1-(1-acryloylpiperidin-3-yl)-4-amino-3-(4-(2-chlorophenoxy)phenyl)-1H-pyrrolo[2,3-d]pyridazin-7(6H)-one]
21 | ≤ 10 | CN(C)C/C=C/C(=O)N1CCC[C@@H](n2cc(-c3ccc(Oc4ccccc4Cl)cc3)c3c(N)n[nH]c(=O)c32)C1 [Example 71, 4-amino-3-[4-(2-chlorophenoxy)phenyl]-1-[(3R)-1-[(E)-4-(dimethylamino)but-2-enoyl]-3-piperidyl]-6H-pyrrolo[2,3-d]pyridazin-7-one]
22 | 10 to 1000 | C=CC(=O)N1CCC[C@@H](n2cc(-c3ccc(Oc4ccc(Cl)c(Cl)c4)c(OC)c3)c3c(N)n[nH]c(=O)c32)C1 [Example 72, (R)-1-(1-acryloylpiperidin-3-yl)-4-amino-3-(4-(3,4-dichlorophenoxy)-3-methoxyphenyl)-1H-pyrrolo[2,3-d]pyridazin-7(6H)-one]
